Test results taken from patent publication US20260191815A1, “THIOACRYLAMIDE DERIVATIVES FOR USE IN THE PREVENTION OR TREATMENT OF LIVER FIBROSIS” (CMR CUREDIAB METABOLIC RESEARCH GMBH, priority 2022, published 2026).

Key:
[1] = system: fibronectin 1 (FN1) protein in LX2 cells; assay: Simple Western of FN1 protein in TGF-β1-stimulated LX2 hepatic stellate cells; assay type: cell-based, human; details: for upregulation of FN1 in TGF-β1-treated LX2 cells: 10 μM, 30 min pretreatment, then 5 ng/ml TGF-β1 for 24 h; for protein abundance of FN1: sole treatment 10 μM for 24 h, LX2 cells, no TGF-β1
Description: The human hepatic stellate cell line LX2 was purchased from Merck. The cells were used up to passage ten and incubated under sterile conditions at 37° C. and 5% CO2. The cells were cultivated in medium containing Dulbecco's Modified Eagle's Medium with 4.5 g/l glucose (ThermoFisher), 4 mmol/l glutamine (ThermoFisher), 2% fetal bovine serum (FBS) (Merck), 100 U/ml penicillin and 100 μg/ml streptomycin (Merck). After 2 days, LX2 cells were starved for FBS for 24 h and then pretreated with 10 μM HK1 (Taros Chemicals GmbH & Co. KG) or 10 μM HK3 (Taros Chemicals GmbH & Co. KG) for 30 min. Subsequently, 5 ng/ml recombinant TGF-β1 (R&D Systems, Minneapolis, MN, USA) was added to the hepatic stellate cell cultures for 24 h. LX2 cells were also incubated with 5 ng/ml TGF-β1 alone as positive control for the hepatic stellate cell activation. Recombinant TGF-β1 was dissolved in sterile 4 mmol/l HCl (Merck) containing 0.1% bovine serum albumin (Roth Karlsruhe, Germany) as carrier protein. HK1 and HK3 were dissolved in sterile dimethyl sulfoxide (DMSO) (Sigma-Aldrich, Munich, Germany). Stimulations with 10 μM HK1, 10 μM HK3 and the corresponding vehicles (HCl and DMSO with or without HCl) alone for 24 h were also included as treatments.
For the measurement of the pro-fibrotic proteins, Western Blotting was performed. Proteins were extracted from whole cell lysate of LX2 cells using RIPA lysis buffer containing 50 mmol/l Tris-HCl (pH 8.0), 150 mmol/l NaCl, 1% IGEPAL® CA-630, 0.5% sodium deoxycholate, 0.1% sodium dodecyl sulfate, 10% PhosSTOP Phosphatase Inhibitor Cocktail (Roche, Basel, Switzerland) and 10% cOmplete Mini Protease Inhibitor Cocktail (Roche). Lysates were centrifuged at 14850×g for 15 min at 4° C. Then, the total protein content of the lysates was determined using a bicinchoninic acid protein assay (ThermoFisher Scientific) in accordance with the manufacturer's instructions. The quantification of protein abundance was performed by Simple Western size-based assays using a 12-230 kDa and 66-440 kDa Separation Module (ProteinSimple, San Jose, CA, USA) according to the manufacturer's instructions. This fully automated Western blotting system is based on a capillary electrophoresis technology. The separation, immobilization to the capillary wall via a proprietary, photoactivated capture chemistry and immunodetection of the proteins using a horseradish peroxidase (HRP)-conjugated secondary antibody and chemiluminescent substrate take place directly in the capillary without gel separation and transfer steps to blotting paper. The chemiluminescence is measured at multiple exposure times and automatically quantified by the Compass for Simple Western software (version 4.1.0) (ProteinSimple). The chemiluminescent signal for immunodetected proteins, which can be represented as an electropherogram or virtual blot-like image, is automatically quantified by calculation of the area under the curve of the peak.
The software reports the molecular weight, the area (in an arbitrary unit and in percent) and signal to noise ratio for each protein detected. The primary antibodies for the recognition of endogenous levels of total alpha-1 type 1 collagen (COL1A1) protein (#72026) and total fibronectin 1 (FN1) protein (#26836) were purchased from Cell Signaling Technology (Danvers, MA, USA). The anti-rabbit HRP-linked secondary antibody was from ProteinSimple. […]
Differences were analysed by one-way ANOVA followed by the Tukey method as correction for multiple testing.

[2] = system: 3D primary human hepatocyte (PHH) spheroid NASH model; assay: Viability (ATP, CellTiter-Glo) of 3D PHH:NPC spheroids; assay type: cell-based; details: 0.1 μM to 10 μM, up to 2 weeks
Description: Experiments were conducted using HepaPredict's (HepaPredict AB, Sweden) 3D primary human hepatocyte (PHH) spheroid NASH model (e.g. as published in Bell et al. Sci Rep. 2016 May 4; 6:25187. doi: 10.1038/srep25187).
Cryopreserved primary human hepatocytes were obtained from BioIVT (USA) and nonparenchymal cells (NPC) from LifeNetHealth (USA). After thawing, PHH-NPC cocultures were seeded in a multi-well 96-well Elplasia plate (Corning) in William's E medium containing 11 mM glucose, 10 μg/mL (control) or 10 mg/mL insulin (NASH), 100 nM dexamethasone, 5.5 mg/L transferrin, 6.7 μg/L selenite, 2 mM L-glutamine, 1 U/mL penicillin, 0.1 mg/mL streptomycin, and 10% fetal bovine serum (FBS). […]
After spheroid formation, cells were exposed to up to five different concentrations of the candidate molecules HK1 or HK3 (0.1 μM, 0.3 μM, 1 μM, 3 μM, and 10 μM) with or without FFA in the culture medium. […] All endpoints were evaluated after 14 days of exposure. […]
Viability was evaluated by ATP quantification using the CellTiter-Glo Luminescent Cell Viability Assay (Promega) according to the manufacturer's instructions. […] Subsequently, luminescence signals were measured using a SpectraMax iD5 multi-mode microplate reader (Molecular Devices). Viability was evaluated after up to two weeks of exposure and values are plotted as relative to vehicle (DMSO) controls with or without FFA. […]

| Structure (SMILES) | upregulation of FN1 in TGF-β1-treated LX2 cells [1] | protein abundance of FN1 [1] | viability of the spheroids (ATP) relative to vehicle (DMSO) [2] |
| --- | --- | --- | --- |
| Cc1cc(NC(=S)/C(C#N)=C(\O)C2CC2)ccc1F [HK1, 2-Cyano-3-cyclopropyl-N-(4-fluoro-3-methyl-phenyl)-3-hydroxy-thioacrylamide] | completely suppressed | no impact | did not affect |
| Cc1cc(NC(=S)/C(C#N)=C(\O)C2CC2)ccc1[N+](=O)[O-] [HK3, 2-Cyano-3-cyclopropyl-3-hydroxy-N-(3-methyl-4-nitro-phenyl)-thioacrylamide] | completely suppressed | no impact | did not affect |
